# Results reported in ChEMBL document CHEMBL1649421, “New drug-like hydroxyphenylnaphthol steroidomimetics as potent and selective 17β-hydroxysteroid dehydrogenase type 1 inhibitors for the treatment of estrogen-dependent diseases” (J Med Chem, 2011).
# What was measured:
# [1] = target: T1, 17-beta-hydroxysteroid dehydrogenase type 1 (Homo sapiens) (UniProt P14061); test: Inhibition of [3H]E1 binding to human placental 17beta-HSD1 at 1 uM after 10 mins by fluid scintillation counting
# T1 sequence (whole entry): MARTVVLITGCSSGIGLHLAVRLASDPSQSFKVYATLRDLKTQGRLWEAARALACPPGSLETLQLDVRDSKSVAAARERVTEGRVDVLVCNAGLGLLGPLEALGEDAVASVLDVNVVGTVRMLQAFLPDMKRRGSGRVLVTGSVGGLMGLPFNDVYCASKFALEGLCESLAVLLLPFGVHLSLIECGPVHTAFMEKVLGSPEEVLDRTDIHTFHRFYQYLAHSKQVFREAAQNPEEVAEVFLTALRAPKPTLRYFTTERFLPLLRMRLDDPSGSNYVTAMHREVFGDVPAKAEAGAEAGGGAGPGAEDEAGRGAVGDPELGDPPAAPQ
# [2] = target: T2, 17-beta-hydroxysteroid dehydrogenase type 2 (Homo sapiens) (UniProt P37059); test: Inhibition of [3H]E2 binding to human placental 17beta-HSD2 at 1 uM after 10 mins by fluid scintillation counting
# T2 sequence (whole entry): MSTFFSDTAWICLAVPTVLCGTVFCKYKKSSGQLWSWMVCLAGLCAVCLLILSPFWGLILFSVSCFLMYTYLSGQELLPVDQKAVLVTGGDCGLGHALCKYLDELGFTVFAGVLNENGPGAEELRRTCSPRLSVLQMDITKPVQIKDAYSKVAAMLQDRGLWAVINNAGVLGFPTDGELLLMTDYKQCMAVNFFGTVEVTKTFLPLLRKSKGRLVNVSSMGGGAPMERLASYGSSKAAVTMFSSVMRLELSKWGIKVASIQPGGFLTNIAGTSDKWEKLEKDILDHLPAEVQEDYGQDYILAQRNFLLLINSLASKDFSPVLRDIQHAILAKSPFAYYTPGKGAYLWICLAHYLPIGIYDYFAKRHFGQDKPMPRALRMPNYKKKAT
# [3] = target: T1, 17-beta-hydroxysteroid dehydrogenase type 1 (Homo sapiens); test: Inhibition of [3H]E1 binding to human placental 17beta-HSD1 at 100 nM after 10 mins by fluid scintillation counting
# [4] = target: T1, 17-beta-hydroxysteroid dehydrogenase type 1 (Homo sapiens); test: Inhibition of [3H]E1 binding to human recombinant 17beta-HSD1 expressed in baculovirus-infected Sf9 cells at 100 nM after 10 mins by fluid scintillation counting
# [5] = target: T1, 17-beta-hydroxysteroid dehydrogenase type 1 (Homo sapiens); test: Inhibition of [3H]E1 binding to human recombinant 17beta-HSD1 expressed in baculovirus-infected Sf9 cells at 1 uM after 10 mins by fluid scintillation counting
# [6] = target: T2, 17-beta-hydroxysteroid dehydrogenase type 2 (Homo sapiens); test: Inhibition of [3H]E2 binding to human recombinant 17beta-HSD2 expressed in baculovirus-infected Sf9 cells at 100 nM after 10 mins by fluid scintillation counting
# [7] = target: T2, 17-beta-hydroxysteroid dehydrogenase type 2 (Homo sapiens); test: Inhibition of [3H]E2 binding to human recombinant 17beta-HSD2 expressed in baculovirus-infected Sf9 cells at 1 uM after 10 mins by fluid scintillation counting
# [8] = target: T3, 17-beta-hydroxysteroid dehydrogenase type 1 (Homo sapiens, UniProt P14061); test: Displacement of [3H]E1 from human placental 17beta-HSD1 after 10 mins by fluid scintillation counting
# T3 sequence (P14061 whole entry): T1 sequence (whole entry)
# Homo sapiens = organism: Homo sapiens; test: Selectivity ratio of IC50 for human placental 17beta-HSD2 to IC50 for human placental 17beta-HSD1
# [9] = target: T4, Estrogen receptor (Homo sapiens) (UniProt P03372); test: Displacement of [3H]E2 from human recombinant ERalpha by liquid scintillation counting relative to estradiol
# T4 sequence (whole entry): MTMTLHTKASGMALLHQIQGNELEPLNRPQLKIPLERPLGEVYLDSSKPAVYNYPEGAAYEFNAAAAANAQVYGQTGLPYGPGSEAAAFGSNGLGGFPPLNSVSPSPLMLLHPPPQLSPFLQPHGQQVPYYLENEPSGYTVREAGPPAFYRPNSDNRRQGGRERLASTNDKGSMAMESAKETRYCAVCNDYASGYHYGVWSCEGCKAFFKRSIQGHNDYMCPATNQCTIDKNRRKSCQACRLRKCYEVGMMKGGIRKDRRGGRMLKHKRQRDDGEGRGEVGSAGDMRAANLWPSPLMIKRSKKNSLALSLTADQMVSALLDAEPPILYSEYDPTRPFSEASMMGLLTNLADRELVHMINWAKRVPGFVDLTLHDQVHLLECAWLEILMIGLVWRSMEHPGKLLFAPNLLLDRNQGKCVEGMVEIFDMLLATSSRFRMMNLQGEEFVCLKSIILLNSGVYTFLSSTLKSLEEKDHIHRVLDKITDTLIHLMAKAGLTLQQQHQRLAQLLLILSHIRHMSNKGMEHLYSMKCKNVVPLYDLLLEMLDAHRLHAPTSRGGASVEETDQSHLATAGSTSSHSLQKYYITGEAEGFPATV
# [10] = target: Estrogen receptor beta (Homo sapiens) (UniProt Q92731); test: Displacement of [3H]E2 from human recombinant ERbeta by liquid scintillation counting relative to estradiol
# [11] = Cmax in Wistar rat at 50 mg/kg, po administered as single dose by LC-MS/MS analysis; format: ADME, organism-based; parameters: dose 50 mg/kg, route oral; conditions: in vivo
# [12] = Half life in Sprague-Dawley rat liver microsomes by LC-MS/MS analysis; format: ADME, Microsome
# Liver microsomes = test: Intrinsic clearance in Sprague-Dawley rat liver microsomes after 60 mins by LC-MS/MS analysis; format: ADME, Microsome; conditions: 1 h
# [13] = Apparent permeability across human Caco2 cells after 180 mins by LC-MS/MS analysis; format: ADME, cell-based; conditions: Caco-2
# Cytochrome P450 1A2 = target: T5, Cytochrome P450 1A2 (Homo sapiens, UniProt P05177); test: Inhibition of human CYP1A2; format: ADME
# T5 sequence (P05177 whole entry): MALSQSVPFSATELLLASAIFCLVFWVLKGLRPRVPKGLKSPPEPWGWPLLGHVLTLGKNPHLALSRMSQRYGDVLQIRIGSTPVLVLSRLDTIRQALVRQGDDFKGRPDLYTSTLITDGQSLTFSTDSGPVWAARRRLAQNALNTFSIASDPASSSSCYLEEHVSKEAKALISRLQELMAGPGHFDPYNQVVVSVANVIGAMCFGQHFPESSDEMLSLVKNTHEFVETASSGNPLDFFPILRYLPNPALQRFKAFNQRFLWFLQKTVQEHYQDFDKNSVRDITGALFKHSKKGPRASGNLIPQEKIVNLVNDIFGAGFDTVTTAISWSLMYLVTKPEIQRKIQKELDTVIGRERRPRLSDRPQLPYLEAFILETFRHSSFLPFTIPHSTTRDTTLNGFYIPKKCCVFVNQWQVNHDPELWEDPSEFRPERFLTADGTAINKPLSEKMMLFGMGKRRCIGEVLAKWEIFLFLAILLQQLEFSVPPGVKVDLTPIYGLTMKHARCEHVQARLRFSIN
# Cytochrome P450 2B6 = target: T6, Cytochrome P450 2B6 (Homo sapiens, UniProt P20813); test: Inhibition of human CYP2B6; format: ADME
# T6 sequence (P20813 whole entry): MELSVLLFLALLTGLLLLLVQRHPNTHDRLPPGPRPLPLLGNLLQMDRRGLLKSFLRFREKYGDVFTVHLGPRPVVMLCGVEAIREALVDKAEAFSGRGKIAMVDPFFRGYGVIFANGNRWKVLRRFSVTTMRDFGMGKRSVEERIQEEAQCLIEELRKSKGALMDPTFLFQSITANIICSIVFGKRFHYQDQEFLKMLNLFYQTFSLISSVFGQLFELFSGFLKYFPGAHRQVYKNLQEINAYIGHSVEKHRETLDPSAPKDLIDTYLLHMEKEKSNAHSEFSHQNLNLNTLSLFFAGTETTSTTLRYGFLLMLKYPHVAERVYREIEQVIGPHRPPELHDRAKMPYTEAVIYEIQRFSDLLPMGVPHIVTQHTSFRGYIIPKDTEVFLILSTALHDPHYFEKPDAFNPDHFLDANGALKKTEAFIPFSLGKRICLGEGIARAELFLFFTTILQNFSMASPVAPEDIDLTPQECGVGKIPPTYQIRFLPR
# Cytochrome P450 2C9 = Cytochrome P450 2C9 (Homo sapiens, UniProt P11712); test: Inhibition of human CYP2C9; format: ADME
# Cytochrome P450 2C19 = Cytochrome P450 2C19 (Homo sapiens, UniProt P33261); test: Inhibition of human CYP2C19; format: ADME
# Cytochrome P450 2D6 = Cytochrome P450 2D6 (Homo sapiens, UniProt P10635); test: Inhibition of human CYP2D6; format: ADME
# Cytochrome P450 3A4 = Cytochrome P450 3A4 (Homo sapiens, UniProt P08684); test: Inhibition of human CYP3A4; format: ADME
# Rattus norvegicus [14] = test: Clast in Wistar rat at 50 mg/kg, po administered as single dose by LC-MS/MS analysis; format: ADME, organism-based; parameters: dose 50 mg/kg, route oral; conditions: in vivo
# [15] = Tmax in Wistar rat at 50 mg/kg, po administered as single dose by LC-MS/MS analysis; format: ADME, organism-based; parameters: dose 50 mg/kg, route oral; conditions: in vivo
# Rattus norvegicus [16] = test: Tlast in Wistar rat at 50 mg/kg, po administered as single dose by LC-MS/MS analysis; format: ADME, organism-based; parameters: dose 50 mg/kg, route oral; conditions: in vivo
# [17] = Half life in Wistar rat at 50 mg/kg, po administered as single dose by LC-MS/MS analysis; format: ADME, organism-based; parameters: dose 50 mg/kg, route oral; conditions: in vivo
# [18] = AUC (0 to t) in Wistar rat at 50 mg/kg, po administered as single dose by LC-MS/MS analysis; format: ADME, organism-based; parameters: dose 50 mg/kg, route oral; conditions: plasma
# [19] = target: T7, 17-beta-hydroxysteroid dehydrogenase type 2 (Homo sapiens, UniProt P37059); test: Displacement of [3H]E2 from human placental 17beta-HSD2 after 10 mins by fluid scintillation counting
# T7 sequence (P37059 whole entry): T2 sequence (whole entry)
# Estrogen receptor beta (Homo sapiens), sequence (Q92731 whole entry): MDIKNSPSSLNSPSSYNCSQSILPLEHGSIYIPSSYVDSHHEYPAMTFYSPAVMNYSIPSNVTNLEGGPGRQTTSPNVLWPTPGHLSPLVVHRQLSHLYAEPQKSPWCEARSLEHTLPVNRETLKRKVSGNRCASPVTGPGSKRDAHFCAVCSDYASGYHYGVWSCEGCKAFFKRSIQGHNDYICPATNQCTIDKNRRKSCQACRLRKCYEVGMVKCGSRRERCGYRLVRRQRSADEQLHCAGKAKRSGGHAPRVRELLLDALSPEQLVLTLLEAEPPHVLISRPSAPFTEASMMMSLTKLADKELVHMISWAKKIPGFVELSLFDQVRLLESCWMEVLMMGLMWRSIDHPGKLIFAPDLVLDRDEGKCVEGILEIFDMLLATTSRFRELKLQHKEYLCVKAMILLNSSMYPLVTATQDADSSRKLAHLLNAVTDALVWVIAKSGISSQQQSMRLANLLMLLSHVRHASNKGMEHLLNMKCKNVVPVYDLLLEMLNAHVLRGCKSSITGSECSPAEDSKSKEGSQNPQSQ
# Cytochrome P450 2C9, sequence (P11712 whole entry): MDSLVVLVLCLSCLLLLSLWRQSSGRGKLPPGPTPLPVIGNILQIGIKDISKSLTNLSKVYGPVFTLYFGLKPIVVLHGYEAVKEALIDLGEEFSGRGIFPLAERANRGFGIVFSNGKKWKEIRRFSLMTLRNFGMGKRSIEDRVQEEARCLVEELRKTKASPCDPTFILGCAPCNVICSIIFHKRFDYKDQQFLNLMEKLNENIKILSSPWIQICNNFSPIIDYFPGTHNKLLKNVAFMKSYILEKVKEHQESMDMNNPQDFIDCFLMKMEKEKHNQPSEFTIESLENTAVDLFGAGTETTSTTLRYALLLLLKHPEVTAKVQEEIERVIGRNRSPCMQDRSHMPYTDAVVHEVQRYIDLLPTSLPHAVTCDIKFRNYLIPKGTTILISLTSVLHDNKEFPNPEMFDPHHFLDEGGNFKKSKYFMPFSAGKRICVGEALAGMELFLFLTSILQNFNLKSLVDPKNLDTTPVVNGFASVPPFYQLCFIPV
# Cytochrome P450 2C19, sequence (P33261 whole entry): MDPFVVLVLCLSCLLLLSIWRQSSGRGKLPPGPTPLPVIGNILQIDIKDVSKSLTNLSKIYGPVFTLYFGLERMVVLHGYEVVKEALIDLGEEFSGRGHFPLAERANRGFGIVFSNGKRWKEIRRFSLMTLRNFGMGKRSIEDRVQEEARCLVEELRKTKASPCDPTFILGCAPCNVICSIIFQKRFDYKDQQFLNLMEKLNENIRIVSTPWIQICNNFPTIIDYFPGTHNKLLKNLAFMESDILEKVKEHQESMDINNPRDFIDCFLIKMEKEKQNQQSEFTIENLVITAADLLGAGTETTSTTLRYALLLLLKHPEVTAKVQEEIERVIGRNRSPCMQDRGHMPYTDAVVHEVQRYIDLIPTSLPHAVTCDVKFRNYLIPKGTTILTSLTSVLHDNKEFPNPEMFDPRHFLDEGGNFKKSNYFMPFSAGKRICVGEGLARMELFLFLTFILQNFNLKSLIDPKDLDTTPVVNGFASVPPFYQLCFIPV
# Cytochrome P450 3A4, sequence (P08684 whole entry): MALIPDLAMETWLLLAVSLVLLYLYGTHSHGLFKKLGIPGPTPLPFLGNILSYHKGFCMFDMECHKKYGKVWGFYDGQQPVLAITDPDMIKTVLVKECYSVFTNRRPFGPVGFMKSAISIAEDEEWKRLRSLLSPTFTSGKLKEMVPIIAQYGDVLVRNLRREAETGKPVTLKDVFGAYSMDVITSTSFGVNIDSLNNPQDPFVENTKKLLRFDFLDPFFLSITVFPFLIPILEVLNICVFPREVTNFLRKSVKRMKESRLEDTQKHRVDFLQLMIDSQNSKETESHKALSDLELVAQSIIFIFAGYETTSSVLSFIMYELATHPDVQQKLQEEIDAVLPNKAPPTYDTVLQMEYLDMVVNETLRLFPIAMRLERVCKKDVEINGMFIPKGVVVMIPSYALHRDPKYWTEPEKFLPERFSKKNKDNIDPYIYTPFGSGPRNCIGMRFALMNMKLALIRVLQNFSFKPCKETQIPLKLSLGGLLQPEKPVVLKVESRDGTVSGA
# Cytochrome P450 2D6, sequence (P10635 whole entry): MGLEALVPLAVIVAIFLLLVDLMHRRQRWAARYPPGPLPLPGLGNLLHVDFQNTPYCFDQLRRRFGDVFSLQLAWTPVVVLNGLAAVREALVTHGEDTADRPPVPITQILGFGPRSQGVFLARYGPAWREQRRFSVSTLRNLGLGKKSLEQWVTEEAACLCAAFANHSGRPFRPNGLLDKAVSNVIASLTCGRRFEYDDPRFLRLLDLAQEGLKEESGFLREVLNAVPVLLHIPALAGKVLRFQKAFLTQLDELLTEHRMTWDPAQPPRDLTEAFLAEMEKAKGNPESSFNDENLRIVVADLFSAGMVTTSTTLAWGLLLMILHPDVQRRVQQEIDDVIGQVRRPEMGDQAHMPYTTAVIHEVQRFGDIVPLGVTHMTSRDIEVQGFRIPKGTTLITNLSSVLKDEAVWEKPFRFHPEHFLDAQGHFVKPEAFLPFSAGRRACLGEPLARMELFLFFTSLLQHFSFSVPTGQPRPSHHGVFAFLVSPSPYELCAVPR
Compound,inhibition [1] [%],inhibition [2] [%],inhibition [4] [%],inhibition [5] [%],inhibition [6] [%],inhibition [7] [%],IC50 [8] [µM],RBA [9] [%],RBA [10] [%],also measured
Oc1ccc2cc(-c3ccccc3)ccc2c1-c1cncnc1,22,< 10,,,,,,,,
Oc1cccc(-c2ccc3c(-c4cncnc4)c(O)ccc3c2)c1,41,85,,,,,,,,inhibition [3]: < 10%
Oc1ccc(-c2ccc3c(-c4cncnc4)c(O)ccc3c2)cc1,35,22,,,,,,,,
COc1ccc(-c2c(O)ccc3cc(-c4cccc(O)c4)ccc23)cn1,,,86,89,24,67,,0.01,< 0.01,IC50 [19]: 0.53 µM; half-life [12]: 4.82 h; Papp at 3 h [13]: 80 nm/s

# The next lines start with results.
inhibition [1] [%],inhibition [2] [%],inhibition [4] [%],inhibition [5] [%],inhibition [6] [%],inhibition [7] [%],IC50 [8] [µM],RBA [9] [%],RBA [10] [%],Compound,also measured
87,19,,,,,,,,Oc1cccc(-c2ccc3c(-c4ccc5[nH]ccc5c4)c(O)ccc3c2)c1,inhibition [3]: 50%
,,83,89,61,92,0.07,0.01,0.01,Oc1cccc(-c2ccc3c(-c4ccoc4)c(O)ccc3c2)c1,Ratio IC50 (Homo sapiens): 8
,,74,87,< 10,39,0.053,0.01,< 0.01,Nc1cccc(-c2c(O)ccc3cc(-c4cccc(O)c4)ccc23)c1,Cmax [11]: 0.044 µg/mL; half-life [12]: 0.833 h; CL (Liver microsomes): 93 µL/min; Papp at 3 h [13]: 160 nm/s; IC50 (Cytochrome P450 1A2): 10.5 µM; IC50 (Cytochrome P450 2B6): 10.4 µM; IC50 (Cytochrome P450 2C9): 1.25 µM; IC50 (Cytochrome P450 2C19): 0.68 µM; IC50 (Cytochrome P450 2D6): 40 µM; IC50 (Cytochrome P450 3A4): 1.07 µM; Cz (Rattus norvegicus [14]): 14 ng/mL; Tmax [15]: 2 h; tz (Rattus norvegicus [16]): 8 h; half-life [17]: 1.6 h; AUC(0-t) [18]: 0.337 µg·h/mL
,,74,86,12,49,0.064,0.01,< 0.01,Oc1cccc(-c2ccc3c(-c4ccncc4)c(O)ccc3c2)c1,
,,35,82,24,64,,,,CC(=O)Nc1cccc(-c2c(O)ccc3cc(-c4cccc(O)c4)ccc23)c1,
,,45,80,< 10,34,,,,O=C(O)c1cccc(-c2c(O)ccc3cc(-c4cccc(O)c4)ccc23)c1,
